Measured values: US10138214B2, “Substituted triazoles and methods relating thereto” (Neurocrine Biosciences, Inc., priority 2015, dated 2018)

Legend:
[1] = system: pilocarpine-induced convulsive status epilepticus; experiment: Pilocarpine rat model (initial qualitative efficacy screen); assay type: in vivo, Sprague Dawley rats; settings: i.p., administered after seizure onset, mpk=mg/kg
Method: Compounds are assessed for their ability to halt pilocarpine-induced convulsive status epilepticus (SE). To identify doses of drug to be used in the SE testing, acute motor impairment is assessed following the intraperitoneal (i.p.) administration of doses starting at 100 and 300 mg/kg. Individual Sprague Dawley rats are evaluated for acute toxicity over several time points following administration of test compounds. The results obtained from this initial study determine whether any dose adjustments are required. The behavior of the animals is observed closely and recorded over a four hour period. Routinely, a minimum number of four rats, two per dose are employed in this acute screen.
To determine if the test substance can halt acute pilocarpine-induced status an initial qualitative efficacy screen is performed. A challenge dose of pilocarpine (50 mg/kg) is administered i.p. and animals observed until the first convulsive (e.g., Stage 3, 4, or 5) seizure (time zero). The seizure severity is determined using the Racine scale. At this point a minimally toxic dose of the candidate drug is administered to a group of 8 male albino Sprague Dawley rats (150-180 g) via the i.p. route of administration. Efficacy is defined by the ability of an investigational drug to halt the further expression of pilocarpine induced convulsive seizures (e.g., Stage 3, 4, or 5). […] In this test, the investigational drug is administered 30 minutes after the first observed convulsive seizure. This is a more severe test of a candidate's ability to halt the induced status. […] A minimum of 4 doses with at least 8 rats per dose are utilized in the quantification study.

[2] = system: hippocampal-kindled focal seizures; experiment: Hippocampal-kindled rat test (focal seizures); assay type: in vivo, rats; settings: i.p. injection
Method: Electrodes are implanted into the hippocampus of anesthetized rats, which are then allowed to recover for 1 week. Following the rapid kindling protocol (Lothman et al., Brain Res., 1994. 649:71-84), the rats are stimulated with […] for 10 s, 50 Hz, every 30 min for 6 h on alternate days until they are fully kindled (4-5 stimulus days). After 1 week of rest, the animals are given the same electrical stimulus, which served as a baseline. The animals are pretreated with the test compound (by i.p. injection) and then tested at various intervals. At each time point, the behavioral seizure score and after-discharge duration are recorded. The behavioral seizure scores are scored according to the following criteria (Racine, Electroencephalogr Clin Neurophysiol, 1972. 32(3):281-94): stage 1—mouth and facial clonus; stage 2—stage 1 plus head nodding; stage 3—stage 2 plus forelimb clonus; stage 4—stage 3 plus rearing, and stage 5—stage 4 plus repeated rearing and falling. The after-discharge threshold (ADT) can also be measured in the kindled rat. The ADT is defined as the lowest current at which an after-discharge of at least 4 s is elicited. […] The initial stimulation is conducted at an intensity of 20 μA with 10 μA increments every 1-2 min until an after-discharge was elicited. Fifteen minutes after the predrug threshold determination, a single dose of the test substance is administered to 2 animals in a volume of 0.04 ml/10 g body weight. In this way, the animals serve as their own control. The individual rat ADT is then determined at varying times (i.e., 0.25, 1, 2 and 4 h) after drug administration.

harmaline-induced tremor = experiment: Harmaline-induced tremor assay; assay type: in vivo, ICR mice; settings: mice, harmaline 30 mg/kg s.c.; oral doses noted; p<0.05; mpk=mg/kg
Description: The harmaline-induced tremor assay is the primary preclinical model of induced tremor. Male ICR mice (10 weeks old) were used in this study. Mice were group housed in OPTI mouse ventilated cages. All animals remained group housed during the duration of the study. All mice were acclimated to the colony room for at least one week prior to testing. During the period of acclimation, mice were examined on a regular basis, handled, and weighed to assure adequate health and suitability. Mice were maintained on a 12/12 light/dark cycle. The room temperature was maintained between 20 and 23° C. with a relative humidity maintained between 30% and 70%. Chow and water were provided ad libitum for the duration of the study. In each test, animals were randomly assigned across treatment groups. Ten mice were tested in each group. […] After habituation, tremor activity of the mice was measured for approximately 8 min. The recorded frequencies (1-64 Hz) of activity and the number of tremor events were captured electronically. Data were analyzed by the tremor monitor software (San Diego Instruments) in a two part process. Using a Fast Fourier Transform (FFT), an output is provided showing the percentage of activity (energy) recorded at each frequency. […] Data were analyzed by analysis of variance (ANOVA) followed by Fisher PLSD post-hoc analysis. […]

Compound	Dose at which activity was shown [1] [mpk]	ED50 [2]	active at (dose) [2]	Dose showing significant reductions in total tremors (harmaline-induced tremor) [mpk]
Fc1cccc(F)c1Cn1cc(N2CCOCC2)nn1 [Compound 10a, 4-{1-[(2,6-difluorophenyl)methyl]-1H-1,2,3-triazol-4-yl}morpholine]	65	ED50 32 mpk	–	–
CN(C)c1cn(Cc2c(F)cccc2F)nn1 [Compound 8a, [1-(2,6-difluoro-benzyl)-1H-[1,2,3]triazol-4-yl]-dimethyl-amine]	65	ED50 25 mpk	–	–
O=C1NCCN1c1cn(Cc2c(F)cccc2F)nn1 [Compound 16a, 1-{1-[(2,6-difluorophenyl)methyl]-1H-1,2,3-triazol-4-yl}imidazolidin-2-one]	–	–	active at 100 mpk	–
O=C1CCCN1c1cn(Cc2c(F)cccc2F)nn1 [Compound 14a, 1-{1-[(2,6-difluorophenyl)methyl]-1H-1,2,3-triazol-4-yl}pyrrolidin-2-one]	–	–	–	50
O=C1OCCN1c1cn(Cc2c(F)cccc2F)nn1 [Compound 15a, 3-{1-[(2,6-difluorophenyl)methyl]-1H-1,2,3-triazol-4-yl}-1,3-oxazolidin-2-one]	–	–	–	50
N[C@@H](Cc1ccccc1)C(=O)Nc1cn(Cc2c(F)cccc2F)nn1 [Compound 3a, (2S)-2-amino-N-{1-[(2,6-difluorophenyl)methyl]-1H-1,2,3-triazol-4-yl}-3-phenylpropanamide]	200	–	active at 200 mpk	–
Fc1cccc(F)c1Cn1cc(N2CCCC2)nn1 [Compound 10f, 1-[(2,6-difluorophenyl)methyl]-4-(pyrrolidin-1-yl)-1H-1,2,3-triazole]	65	–	–	–
O=C(Nc1cn(Cc2c(F)cccc2F)nn1)[C@@H]1COCCN1 [Compound 3c, (3S)—N-{1-[(2,6-difluorophenyl)methyl]-1H-1,2,3-triazol-4-yl}morpholine-3-carboxamide]	–	–	active at 50 mpk	–
O=C(Nc1cn(Cc2c(F)cccc2F)nn1)[C@H]1COCCN1 [Compound 3d, (3R)—N-{1-[(2,6-difluorophenyl)methyl]-1H-1,2,3-triazol-4-yl}morpholine-3-carboxamide]	450	ED50 79 mpk	–	–
